In patent US11440907B1 (Merck Patent GmbH, priority 2018, dated 2022):

Key:
Format in all cases: cell-based
[1] = test system: intracellular calcium flux in Colo-205 cells; test: Calcium flux assay (FLIPR Calcium 5 Assay Kit, FLIPR3); settings: Homo sapiens, 0.6 h, calcium flux measured over 36 minutes, read-out: Colo 205 Calcium Flux assay 384w Boston Ca assay FLIPR3 Colo EC50
Experimental: Compounds described herein induced ER stress by causing intracellular calcium flux. Calcium flux was measured in Colo-205 cells using the FLIPR® Calcium 5 Assay Kit according to manufacturer's protocol (Molecular Devices, Cat. #R8186) on a FLIPR3 system (Molecular Devices). Calcium flux is measured over 36 minutes. The Colo-205 calcium flux assay data are summarized in Table 3: A<0.6 μM; 0.6 μM≤B<2.0 μM; 2.0 μM≤C<10.0 μM; D≥10.0 μM.

[2] = test system: XBP1(u)-luciferase splicing reporter in HepG2 hepatoma cells; test: HepG2 XBP1 reporter assay (XBP1(u)-Luc); settings: Homo sapiens, 6 hours after compound addition, Table 3, read-out: XBP1-luc HepG2 1 EC50
[3] = test system: β-catenin-TCF-mediated reporter transcription activity in Colo 205 cells; test: Colo 205 reporter assay (TCF/LEF promoter-driven firefly luciferase); settings: Homo sapiens; Colo 205 TCF/LEF luciferase reporter, 5 hours after compound addition, 384 well; read-out: Colo205 IC50

Compound	EC50 [1]	EC50 [2]	IC50 [3]
CC(C)c1cc(N2CCCCCC2c2ccccc2Cl)nc(N)n1 (racemic) [I-16, (+/−)-4-(2-(2-chlorophenyl)azepan-1-yl)-6-isopropylpyrimidin-2-amine]	600 to 2000 nM	2000 to 5000 nM	300 to 1000 nM
CCc1cc(N2CCCCCC2c2ccccc2Cl)nc(N)n1 (racemic) [I-17, (+/−)-4-(2-(2-chlorophenyl)azepan-1-yl)-6-ethylpyrimidin-2-amine]	600 to 2000 nM	< 600 nM	300 to 1000 nM
COc1ccc(C2CCCCCN2c2cc(C)nc(N)n2)c(OC)c1 (racemic) [I-51, (+/−)-4-[2-(2,4-dimethoxyphenyl)azepan-1-yl]-6-methyl-pyrimidin-2-amine]	< 600 nM	< 600 nM	300 to 1000 nM
CCNC(=O)c1ccc(C2COCCCN2c2cc(C)nc(N)n2)c(Cl)c1 (racemic) [I-171, (+/−)-4-[4-(2-amino-6-methyl-pyrimidin-4-yl)-1,4-oxazepan-3-yl]-3-chloro-N-ethyl-benzamide]	< 600 nM	600 to 2000 nM	1000 to 5000 nM
Cc1cc(N2CCCOCC2c2cc(C(=O)NC3CC3)ccc2Cl)nc(N)n1 (racemic) [I-172, (+/−)-3-(4-(2-amino-6-methylpyrimidin-4-yl)-1,4-oxazepan-3-yl)-4-chloro-N-cyclopropylbenzamide]	< 600 nM	2000 to 5000 nM	300 to 1000 nM
CCNC(=O)c1ccc(Cl)c(C2COCCCN2c2cc(C)nc(N)n2)c1 (racemic) [I-173, (+/−)-3-[4-(2-amino-6-methyl-pyrimidin-4-yl)-1,4-oxazepan-3-yl]-4-chloro-N-ethyl-benzamide]	< 600 nM	600 to 2000 nM	300 to 1000 nM
CNc1ccc(Cl)c(C2COCCCN2c2cc(C)nc(N)n2)c1 (racemic) [I-175, (+/−)-4-[3-[2-chloro-5-(methylamino)phenyl]-1,4-oxazepan-4-yl]-6-methyl-pyrimidin-2-amine]	< 600 nM	< 600 nM	< 300 nM
Cc1cc(N2CCCOCC2c2cc(NC(=O)C3CCO3)ccc2Cl)nc(N)n1 (racemic) [I-184, (+/−)-N-[3-[4-(2-amino-6-methyl-pyrimidin-4-yl)-1,4-oxazepan-3-yl]-4-chloro-phenyl]oxetane-2-carboxamide]	< 600 nM	2000 to 5000 nM	300 to 1000 nM
Cc1cc(N2CCCOCC2c2cc(NC(=O)CC3COC3)ccc2Cl)nc(N)n1 (racemic) [I-185, (+/−)-N-[3-[4-(2-amino-6-methyl-pyrimidin-4-yl)-1,4-oxazepan-3-yl]-4-chloro-phenyl]-2-(oxetan-3-yl)acetamide]	< 600 nM	2000 to 5000 nM	300 to 1000 nM
Cc1cc(N2CCCOCC2c2ccc(N(C)C3COC3)cc2Cl)nc(N)n1 (racemic) [I-186, (+/−)-4-[3-[2-chloro-4-[methyl(oxetan-3-yl)amino]phenyl]-1,4-oxazepan-4-yl]-6-methyl-pyrimidin-2-amine]	< 600 nM	< 600 nM	< 300 nM
COc1ccc(OC)c([C@H]2CCCCCN2c2cc(C)nc(N)n2)c1 (single isomer, unassigned) [I-40]	< 600 nM	< 600 nM	< 300 nM
Cc1cc(N2CCCOC[C@@H]2c2ccc(S(C)(=O)=O)cc2Cl)nc(N)n1 (single isomer, unassigned) [I-68]	< 600 nM	< 600 nM	300 to 1000 nM
CC(=O)Nc1ccc([C@H]2COCCCN2c2cc(C)nc(N)n2)c(Cl)c1 (single isomer, unassigned) [I-162]	< 600 nM	< 600 nM	< 300 nM
Cc1cc(N2CCCOC[C@H]2c2cc(NC(=O)C(F)(F)F)ccc2Cl)nc(N)n1 (single isomer, unassigned) [I-176]	< 600 nM	600 to 2000 nM	300 to 1000 nM
Cc1cc(N2CCCOCC2c2cc(NC(=O)C(F)(F)F)ccc2Cl)nc(N)n1 (single isomer, unassigned) [I-177, N-(3-(4-(2-amino-6-methylpyrimidin-4-yl)-1,4-oxazepan-3-yl)-4-chlorophenyl)-2,2,2-trifluoroacetamide]	< 600 nM	< 600 nM	< 300 nM
CNc1ccc(Cl)c([C@H]2COCCCN2c2cc(C)nc(N)n2)c1 (single isomer, unassigned) [I-178, 4-[3-[2-chloro-5-(methylamino)phenyl]-1,4-oxazepan-4-yl]-6-methyl-pyrimidin-2-amine]	< 600 nM	< 600 nM	< 300 nM
Cc1cc(N2CCCOC[C@H]2c2ccc(NS(C)(=O)=O)cc2Cl)nc(N)n1 (single isomer, unassigned) [I-179, N-[4-[4-(2-amino-6-methyl-pyrimidin-4-yl)-1,4-oxazepan-3-yl]-3-chloro-phenyl]methanesulfonamide]	< 600 nM	< 600 nM	< 300 nM
COc1cc(Cl)ccc1C1CCCCCN1c1cc(C)nc(N)n1 (stereo not shown) [I-20, 4-(2-(4-chloro-2-methoxyphenyl)azepan-1-yl)-6-methylpyrimidin-2-amine]	600 to 2000 nM	600 to 2000 nM	300 to 1000 nM
COc1ccc(Cl)cc1C1CCCCCN1c1cc(C)nc(N)n1 (stereo not shown) [I-21, 4-(2-(5-chloro-2-methoxyphenyl)azepan-1-yl)-6-methylpyrimidin-2-amine]	600 to 2000 nM	2000 to 5000 nM	300 to 1000 nM
CNC(=O)c1ccc(F)c(C2CCCCCN2c2cc(C)nc(N)n2)c1 (stereo not shown) [I-55, 3-(1-(2-amino-6-methylpyrimidin-4-yl)azepan-2-yl)-4-fluoro-N-methylbenzamide]	< 600 nM		300 to 1000 nM

The next lines start with the values.

EC50 [1]	EC50 [2]	IC50 [3]	Compound
< 600 nM	600 to 2000 nM	300 to 1000 nM	Cc1cc(N2CCCOCC2c2cc3nccn3cc2Cl)nc(N)n1 (racemic) [I-191, 4-(3-(6-chloroimidazo[1,2-a]pyridin-7-yl)-1,4-oxazepan-4-yl)-6-methylpyrimidin-2-amine]
< 600 nM	< 600 nM	300 to 1000 nM	COCC(=O)Nc1ccc(C2COCCCN2c2cc(C)nc(N)n2)c(Cl)c1 (racemic) [I-192, (+/−)-N-[4-[4-(2-amino-6-methyl-pyrimidin-4-yl)-1,4-oxazepan-3-yl]-3-chloro-phenyl]-2-methoxy-acetamide]
< 600 nM	< 600 nM	< 300 nM	Cc1cc(N2CCCOCC2c2ccc(N3CCCS3(=O)=O)cc2Cl)nc(N)n1 (racemic) [I-193, (+/−)-4-[3-[2-chloro-4-(1,1-dioxo-1,2-thiazolidin-2-yl)phenyl]-1,4-oxazepan-4-yl]-6-methyl-pyrimidin-2-amine]
< 600 nM	600 to 2000 nM	300 to 1000 nM	Cc1cc(N2CCCOCC2c2cc(N3CCCC3)ccc2Cl)nc(N)n1 (racemic) [I-199, (+/−)-4-[3-(2-chloro-5-pyrrolidin-1-yl-phenyl)-1,4-oxazepan-4-yl]-6-methyl-pyrimidin-2-amine]
600 to 2000 nM	≥ 5000 nM	300 to 1000 nM	Cc1cc(N2CCCOCC2c2ccc(P(C)(C)=O)cc2Cl)nc(N)n1 (racemic) [I-202, (+/−)-4-[3-(2-chloro-4-dimethylphosphoryl-phenyl)-1,4-oxazepan-4-yl]-6-methyl-pyrimidin-2-amine]
< 600 nM	< 600 nM	300 to 1000 nM	COCc1ccc(C2COCCCN2c2cc(C)nc(N)n2)c(Cl)c1 (racemic) [I-205, (+/−)-4-[3-[2-chloro-4-(methoxymethyl)phenyl]-1,4-oxazepan-4-yl]-6-methyl-pyrimidin-2-amine]
< 600 nM	< 600 nM	< 300 nM	Cc1cc(N2CCCOCC2c2ccc(CS(C)(=O)=O)cc2Cl)nc(N)n1 (racemic) [I-208, (+/−)-4-(3-(2-chloro-4-((methylsulfonyl)methyl)phenyl)-1,4-oxazepan-4-yl)-6-methylpyrimidin-2-amine]
< 600 nM	< 600 nM	300 to 1000 nM	Cc1cc(N2CCCOCC2c2cc(N3CCOCC3)ccc2Cl)nc(N)n1 (racemic) [I-226, (+/−)-4-(3-(2-chloro-5-morpholinophenyl)-1,4-oxazepan-4-yl)-6-methylpyrimidin-2-amine]
< 600 nM	< 600 nM	< 300 nM	Cc1cc(N2CCCOC[C@@H]2c2ccc(N(C)C3COC3)cc2Cl)nc(N)n1 (single isomer, unassigned) [I-190]
< 600 nM	< 600 nM	300 to 1000 nM	Cc1cc(N2CCCOC[C@@H]2c2ccc(NC(=O)C3(O)CC3)cc2Cl)nc(N)n1 (single isomer, unassigned) [I-197]
< 600 nM	< 600 nM	< 300 nM	CCC(=O)Nc1ccc([C@H]2COCCCN2c2cc(C)nc(N)n2)c(Cl)c1 (single isomer, unassigned) [I-204]
< 600 nM	< 600 nM	< 300 nM	Cc1cc(N2CCCOC[C@@H]2c2ccc(NC(=O)C3CC3)cc2Cl)nc(N)n1 (single isomer, unassigned) [I-207]
< 600 nM	< 600 nM	< 300 nM	Cc1cc(N2CCCOC[C@@H]2c2cc3nccn3cc2Cl)nc(N)n1 (single isomer, unassigned) [I-221, 4-[3-(6-chloroimidazo[1,2-a]pyridin-7-yl)-1,4-oxazepan-4-yl]-6-methyl-pyrimidin-2-amine]
< 600 nM	< 600 nM	< 300 nM	Cc1cc(N2CCCOC[C@@H]2c2ccc(CS(C)(=O)=O)cc2Cl)nc(N)n1 (single isomer, unassigned) [I-224]
< 600 nM		300 to 1000 nM	COC(=O)c1ccc(OC)c(C2COCCCN2c2cc(C)nc(N)n2)c1 (stereo not shown) [I-289]
